Measured values published in article PMC10511408, “Novel iodoquinazolinones bearing sulfonamide moiety as potential antioxidants and neuroprotectors” (Scientific Reports, 2023).
Where two headings read alike, the source gives them in different places.

Assays:
[1] = Free radical scavenging activity (DPPH) assay; conditions: mean ± S.E (n = 3)
Protocol: The antioxidant activities of all newly synthesized compounds were measured as radical scavenging activities using 1,1-diphenyl-2-picrylhydrazyl (DPPH) (Sigma Chemical Co., Steinheim, Germany) and compared with ascorbic acid as a reference standard (Sigma-Aldrich Chemie GmbH, Taufkirchen, Germany)[46].
Where, 1 mL of the test compounds or ascorbic acid at concentrations (12.5, 25, 50 and 100 mg/mL) were mixed with 1 ml of the DPPH solution. The mixtures were incubated for 30 min at room temperature in dark. The absorbance was read using a JENWAY 6315 spectrophotometer (Keison Products, Chelmsford, England) at 517 nm against blank.
It was carried out in triplicate, and average values were used to determine the inhibitory percentage of DPPH according to the following equation: percent inhibition = [(B − A)/B]*100, where A is the absorbance of the compound or standard and B is the absorbance of blank. IC50 (µM) of each compound was calculated according to the nonlinear regression dose response-inhibition curve using Prism 5.03 (GraphPad, San Diego, CA, USA) and expressed as mean ± standard error (S.E).

[2] = target: acetylcholine esterase (AChE) (Homo sapiens, UniProt P22303); experiment: biochemical
Protocol: The cholinesterase enzymes' inhibitory activity was evaluated using modified Osman et al.[45] method. Briefly, samples were initially dissolved in DMSO to achieve a concentration of 10 mg/mL. Then 0.1 mL of the sample was diluted to 1 mL methanol to reach the concentration of 1 mg/mL (concentration 1). From concentration (1), 0.1 mL was further diluted to 1 mL to reach the concentration of 0.1 mg/mL (concentration 2). Concentration 1 (1 mg/mL) will become 0.1 mg/mL inside the plate and concentration 2 will become 0.01 mg/mL due to the addition of the reagents of the assay that dilute the sample ten folds. […] Then 20 μL of the sample/standard solution was added followed by 140 μL of buffer (1). The mixture was allowed to stand for 15 min at room temperature.

Norepinephrine (NE) = experiment: Norepinephrine in brain tissue homogenate of irradiated mice (ELISA); type: in vivo; conditions: 14 at 30 mg/kg/day i.p. for 7 days, 5 Gy; Fig. 6B
Protocol: (§1) Twenty-one mice were blindly allocated into three groups (n = 7). The first group (control) was injected i.p. with 10% DMSO, daily, for 7 days. […]. A third group (Compound 14 + irradiation) received 30 mg/kg/day i.p. (1/10 LD50) of compound 14, daily for 7 days. Then on the last day, after 1 h of injection, animals were irradiated at a dose of 5 Gy. After 24 h. of the last injection, behavioral tests were carried out. […]. Then it was homogenized in ice-cold 0.1 M phosphate buffer saline (pH = 7.4) and stored at – 80 °C for subsequent biochemical analysis.
(§2) Brain homogenates were used for measuring AChE using Mouse Acetylcholinesterase (AChE) ELISA Kit content using the Mouse Acetylcholinesterase ELISA Kit from MyBioSource Cat.No. MBS260553 (San Diego, CA., USA) according to the manufacturer’s instructions. The generation of norepinephrine (NE) in brain tissues was measured using an Eliza kit (MBS2600834) from MyBioSource (San Diego, CA, USA) according to the manufacturer’s instructions.

irradiated mice [3] = experiment: Open field test in irradiated mice; type: in vivo; conditions: 14 at 30 mg/kg/day i.p. for 7 days before 5 Gy irradiation
Protocol: (§3) Twenty-one mice were blindly allocated into three groups (n = 7). The first group (control) was injected i.p. with 10% DMSO, daily, for 7 days. The second one (irradiated) was treated as a control, and after 1 h from the last DMSO injection, the mice were exposed to 5 Gy gamma radiation. A third group (Compound 14 + irradiation) received 30 mg/kg/day i.p. (1/10 LD50) of compound 14, daily for 7 days. Then on the last day, after 1 h of injection, animals were irradiated at a dose of 5 Gy. After 24 h. of the last injection, behavioral tests were carried out. Immediately after behavioral test, mice were anesthetized using urethane ([…] i.p.)[49] and sacrificed by cervical dislocation then brain tissues were dissected out, rinsed with ice-cold saline, and dried on a filter paper. Then it was homogenized in ice-cold 0.1 M phosphate buffer saline (pH = 7.4) and stored at – 80 °C for subsequent biochemical analysis.
(§4) All behavioral tests have been carried out under blind conditions to avoid any bias in evaluating the animal's behavior. Mice were allowed to a pre-test session a day before scarification for habituation.
This evaluates locomotors and exploratory activities in mice where, the apparatus is transparent walls and a white floor 30 × 30 × 15 cm, divided into 16 squares of equal area. Each mouse was placed in the center of the open field test apparatus and allowed to roam freely for 5 min and latency time (ie, time taken to start moving) was detected as well as locomotion frequency as ambulation (ie, number of squares crossed), rearing frequency (ie, number of times the mice stand on its hind legs or with its forearm against the wall or in the free air)[50].

Glutathione (GSH) = experiment: GSH level in brain tissue homogenate of irradiated mice; type: in vivo; conditions: 14 at 30 mg/kg/day i.p. for 7 days, 5 Gy; compared to irradiated mice
Protocol: as §3
(§5) The antioxidant activity of compound 14 was measured by estimation of MPO activity using an ELISA Kit from MyBioSource Cat.No.: CSB-E08723m (Houston, TX., USA) as well as the level of GSH was evaluated using a colorimetric kit according to the method of E. Beutler[52].

[4] = Acute toxicity study (LD50); conditions: mouse, in vivo, ip; albino male mice, i.p.; read-out: LD50 (median lethal dose)
Protocol: Lethal dose fifty (LD50) was determined for the most promising compound 14 to estimate its acute toxicity in albino male mice. […] Consequently, one-tenth of this dose was selected as the therapeutic dose for further evaluation of the potential radioprotective effects of 14. This was following our previous studies[42],[63],[68].

irradiated mice [5] = experiment: Forced swimming test in irradiated mice; type: in vivo; conditions: 14 at 30 mg/kg/day i.p. for 7 days before 5 Gy irradiation; compared to radiation only
Protocol: as §3, §4
Mice were independently forced to swim in an open cylindrical container (22 cm diameter, 40 cm height) that contained water (23–25 °C).

Myeloperoxidase (MPO) = experiment: MPO in brain tissue homogenate of irradiated mice (ELISA); type: in vivo; conditions: 14 at 30 mg/kg/day i.p. for 7 days, 5 Gy; compared to irradiated mice
Protocol: as §3, §5

[6] = system: Acetylcholinesterase (AChE); experiment: AChE in brain tissue homogenate of irradiated mice (ELISA); type: in vivo; conditions: 14 at 30 mg/kg/day i.p. for 7 days, 5 Gy; compared to radiation only
Protocol: as §1, §2

[7] = in vitro, mean ± S.E (n = 3), read-out: AChE IC50

Sequence of acetylcholine esterase (AChE) (P22303 32-614): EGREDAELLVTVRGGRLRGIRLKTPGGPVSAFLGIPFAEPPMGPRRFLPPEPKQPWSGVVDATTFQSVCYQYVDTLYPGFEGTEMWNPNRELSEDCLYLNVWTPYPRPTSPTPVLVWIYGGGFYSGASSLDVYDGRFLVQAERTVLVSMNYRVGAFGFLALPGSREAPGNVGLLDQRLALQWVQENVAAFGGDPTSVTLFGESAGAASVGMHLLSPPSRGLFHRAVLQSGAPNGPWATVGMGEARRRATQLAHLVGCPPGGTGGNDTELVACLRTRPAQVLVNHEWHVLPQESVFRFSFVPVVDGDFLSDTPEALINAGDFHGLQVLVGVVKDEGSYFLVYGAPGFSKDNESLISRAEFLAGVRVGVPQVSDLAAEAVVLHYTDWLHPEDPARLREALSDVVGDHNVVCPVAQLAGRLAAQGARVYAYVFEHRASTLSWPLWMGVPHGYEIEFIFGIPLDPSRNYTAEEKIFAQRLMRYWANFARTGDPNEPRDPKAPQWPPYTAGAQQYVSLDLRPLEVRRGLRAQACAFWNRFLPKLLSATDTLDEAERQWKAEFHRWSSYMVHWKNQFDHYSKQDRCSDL

Row | Structure (SMILES) | IC50 [1] [µM] | IC50 [2, 7] [nM] | also measured
1 | O=C1O[C@H]([C@@H](O)CO)C(O)=C1O [Ascorbic acid, ascorbic acid, reference compound] | 112.8 ± 1.03 |  | 
2 | Cc1cc(NC(=O)CSc2nc3ccc(I)cc3c(=O)n2-c2ccc(S(N)(=O)=O)cc2)no1 [Compound 5, 2-(6-Iodo-4-oxo-3-(4-sulfamoylphenyl)-3,4-dihydroquinazolin-2-ylthio)-N-(5-methylisoxazol-3-yl) acetamide] | 149.8 ± 1.26 | > 100 | 
3 | NS(=O)(=O)c1ccc(-n2c(SCC(=O)Nc3nccs3)nc3ccc(I)cc3c2=O)cc1 [Compound 6, 2-(6-Iodo-4-oxo-3-(4-sulfamoylphenyl)-3,4-dihydroquinazolin-2-ylthio)-N-(thiazol-2-yl) acetamide] | 143.4 ± 1.12 | > 100 | 
4 | CCOc1ccc2nc(NC(=O)CSc3nc4ccc(I)cc4c(=O)n3-c3ccc(S(N)(=O)=O)cc3)sc2c1 [Compound 7, N-(6-Ethoxybenzo[d]thiazol-2-yl)-2-(6-iodo-4-oxo-3-(4-sulfamoylphenyl)-3,4-dihydroquinazolin-2-ylthio) acetamide] | 118.8 ± 0.92 | 90 ± 5.83 | 
5 | NS(=O)(=O)c1ccc(-n2c(SCC(=O)Nc3nc4ccc([N+](=O)[O-])cc4s3)nc3ccc(I)cc3c2=O)cc1 [Compound 8, 2-(6-Iodo-4-oxo-3-(4-sulfamoylphenyl)-3,4-dihydroquinazolin-2-ylthio)-N-(6-nitrobenzo[d]thiazol-2-yl) acetamide] | 177 ± 1.99 | > 100 | 
6 | NS(=O)(=O)c1ccc(-n2c(SCC(=O)NN3CCOCC3)nc3ccc(I)cc3c2=O)cc1 [Compound 9, 2-(6-Iodo-4-oxo-3-(4-sulfamoylphenyl)-3,4-dihydroquinazolin-2-ylthio)-N-morpholinoacetamide] | 148 ± 1.53 | > 100 | 
7 | CCOC(=O)N1CCC(NC(=O)CSc2nc3ccc(I)cc3c(=O)n2-c2ccc(S(N)(=O)=O)cc2)CC1 [Compound 10, Ethyl 4-(2-(6-iodo-4-oxo-3-(4-sulfamoylphenyl)-3,4-dihydroquinazolin-2-ylthio)acetamido) piperidine-1-carboxylate] | 154.9 ± 1.24 |  | IC50 [2]: > 100 nM
8 | NS(=O)(=O)c1ccc(-n2c(SCC(=O)NC3CCN(Cc4ccccc4)CC3)nc3ccc(I)cc3c2=O)cc1 [Compound 11, N-(1-Benzylpiperidin-4-yl)-2-(6-iodo-4-oxo-3-(4-sulfamoylphenyl)-3,4-dihydroquinazolin-2-ylthio) acetamide] | 109 ± 1.09 | 23.9 ± 1.41 | 
9 | CCOC(=O)c1ccccc1NC(=O)CSc1nc2ccc(I)cc2c(=O)n1-c1ccc(S(N)(=O)=O)cc1 [Compound 12, Ethyl 2-(2-(6-iodo-4-oxo-3-(4-sulfamoylphenyl)-3,4-dihydroquinazolin-2-ylthio)acetamido)benzoate] | 122.3 ± 0.92 | 60.7 ± 2.8 | 
10 | CCOC(=O)c1cccc(NC(=O)CSc2nc3ccc(I)cc3c(=O)n2-c2ccc(S(N)(=O)=O)cc2)c1 [Compound 13, Ethyl 3-(2-(6-iodo-4-oxo-3-(4-sulfamoylphenyl)-3,4-dihydroquinazolin-2-ylthio)acetamido)benzoate] | 129.1 ± 1.03 | 74.8 ± 3.06 | 
11 | NS(=O)(=O)c1ccc(-n2c(SCC(=O)Nc3cnccn3)nc3ccc(I)cc3c2=O)cc1 [Compound 14, 2-(6-Iodo-4-oxo-3-(4-sulfamoylphenyl)-3,4-dihydroquinazolin-2-ylthio)-N-(pyrazin-2-yl) acetamide] | 95.5 ± 1.67 | 11.6 ± 0.45 | Norepinephrine (NE), effect of radiation abolished by (Norepinephrine (NE)): 25%; ambulation (open field test), effect of radiation abolished by (irradiated mice [3]): 31%; open field parameters (latency, ambulation, rearing) (irradiated mice [3]): normalized all open field parameters; decrease in latency time (open field test) (irradiated mice [3]; compared with mice that received radiation alone): 72.4%; increase in brain GSH levels (Glutathione (GSH)): 17%; LD50 [4]: 300 mg/kg; decrease in mean immobility time (forced swimming test) (irradiated mice [5]): 33%; decrease in brain MPO (Myeloperoxidase (MPO)): 39.6%; decrease in brain AChE [6]: 21%
12 | NS(=O)(=O)c1ccc(-n2c(SCC(=O)Nc3c[nH]c(=O)[nH]c3=O)nc3ccc(I)cc3c2=O)cc1 [Compound 15, N-(2,4-Dioxo-1,2,3,4-tetrahydropyrimidin-5-yl)-2-(6-iodo-4-oxo-3-(4-sulfamoylphenyl)-3,4-dihydroquinazolin-2-ylthio) acetamide] | 136.3 ± 1.3 | > 100 | 
13 | Cn1c(NC(=O)CSc2nc3ccc(I)cc3c(=O)n2-c2ccc(S(N)(=O)=O)cc2)cc(=O)n(C)c1=O [Compound 16, N-(1,3-Dimethyl-2,6-dioxo-1,2,3,6-tetrahydropyrimidin-4-yl)-2-(6-iodo-4-oxo-3-(4-sulfamoylphenyl)-3,4-dihydroquinazolin-2-ylthio) acetamide] | 137.3 ± 0.29 | 86.2 ± 2.14 | 
14 | CN1C(=O)c2ccc(NC(=O)CSc3nc4ccc(I)cc4c(=O)n3-c3ccc(S(N)(=O)=O)cc3)cc2C1=O [Compound 17, 2-(6-Iodo 4-oxo-3-(4-sulfamoylphenyl)-3,4-dihydroquinazolin-2-ylthio)-N-(2-methyl-1,3-dioxoisoindolin-5-yl) acetamide] | 127 ± 1.93 | 77.4 ± 1.29 | 
